ChEMBL document CHEMBL3132797, “Synthesis and biological evaluation of substituted N-alkylphenyl-3,5-dinitrobenzamide analogs as anti-TB agents” (Medchemcomm, 2014)
≈ marks a conversion by molar mass, not a printed value.

Tests used:
[1] = tested on: Mycobacterium tuberculosis; test: Antimycobacterial activity against Mycobacterium tuberculosis H37Rv ATCC 27294 by broth dilution method; type: functional
J774 [2] = test: Cytotoxicity against mouse J774 cells at 20 ug/ml after 24 hrs by MTT assay; type: cell-based; settings: j774, 24 h
J774 [3] = test: Cytotoxicity against mouse J774 cells after 24 hrs by MTT assay; type: cell-based; settings: J774, 24 h
[4] = Selectivity index, ratio of IC50 for mouse J774 cells to MIC for Mycobacterium tuberculosis H37Rv ATCC 27294; type: toxicity, cell-based; settings: read-out: Selectivity Index
[5] = tested on: Mycobacterium tuberculosis; test: Antimycobacterial activity against Mycobacterium tuberculosis H37Rv ATCC 27294 infected in mouse J774 cells assessed as intracellular killing after 48 hrs by colony formation assay; type: functional; settings: H37Rv ATCC 27294, 48 h
[6] = tested on: Mycobacterium tuberculosis; test: Bactericidal activity against Mycobacterium tuberculosis H37Rv ATCC 27294 by broth dilution method; type: functional
[7] = AUC (0 to t) in Balb mouse at 1 mg/kg, iv; type: ADME, organism-based; design: dose 1 mg/kg, route intravenous; settings: plasma
[8] = Clearance in Balb mouse at 1 mg/kg, iv; type: ADME, organism-based; design: dose 1 mg/kg, route intravenous; settings: in vivo
[9] = Elimination half life in Balb mouse at 1 mg/kg, iv; type: ADME, organism-based; design: dose 1 mg/kg, route intravenous; settings: in vivo, read-out: beta t1/2 (converted)
[10] = Bioavailability in Balb mouse at 2.5 mg/kg, ip; type: ADME, organism-based; settings: in vivo
[11] = Cmax in Balb mouse at 1 mg/kg, iv; type: ADME, organism-based; design: dose 1 mg/kg, route intravenous; settings: in vivo
[12] = AUC (0 to t) in Balb mouse at 2.5 mg/kg, ip; type: ADME, organism-based; design: dose 2.5 mg/kg, route intraperitoneal; settings: plasma
[13] = Elimination half life in Balb mouse at 2.5 mg/kg, ip; type: ADME, organism-based; design: dose 2.5 mg/kg, route intraperitoneal; settings: in vivo, read-out: beta t1/2 (converted)
[14] = Tmax in Balb mouse at 2.5 mg/kg, ip; type: ADME, organism-based; design: dose 2.5 mg/kg, route intraperitoneal; settings: in vivo
[15] = Cmax in Balb mouse at 2.5 mg/kg, ip; type: ADME, organism-based; design: dose 2.5 mg/kg, route intraperitoneal; settings: in vivo

CO[C@H]1/C=C/O[C@@]2(C)Oc3c(C)c(O)c4c(O)c(c(/C=N/N5CCN(C)CC5)c(O)c4c3C2=O)NC(=O)/C(C)=C\C=C\[C@H](C)[C@H](O)[C@@H](C)[C@@H](O)[C@@H](C)[C@H](OC(C)=O)[C@@H]1C [RIFAMPIN]
MIC [1]: 0.07 µM (≈ 0.0576 µg/mL)

Cc1ccc(C(C)NC(=O)c2cc([N+](=O)[O-])c(C)c([N+](=O)[O-])c2)cc1 (racemic)
Activity (J774 [2]): Non-toxic
IC50 (J774 [3]): > 58.2 µM
selectivity ratio [4]: > 1330
MIC [5]: 0.72 µM (≈ 0.247 µg/mL)
MBC [6]: < 0.04 µM
MIC [1]: < 0.17 µM

O=C(Nc1cc(Cl)cc(Cl)c1)c1cc([N+](=O)[O-])cc([N+](=O)[O-])c1
MIC [1]: 22.5 µM (≈ 8.02 µg/mL)

O=C(Nc1ccccc1C(F)(F)F)c1cc([N+](=O)[O-])cc([N+](=O)[O-])c1
MIC [1]: 1.41 µM (≈ 0.501 µg/mL)

CC(C)c1ccc(NC(=O)c2cc([N+](=O)[O-])cc([N+](=O)[O-])c2)cc1
MIC [1]: 12.1 µM (≈ 4 µg/mL)

O=C(NCCCCc1ccccc1)c1cc([N+](=O)[O-])cc([N+](=O)[O-])c1
MIC [1]: 0.35 µM (≈ 0.12 µg/mL)

CCCCCCCCCCCCCCCCNC(=O)c1cc([N+](=O)[O-])cc([N+](=O)[O-])c1
MIC [1]: 0.57 µM (≈ 0.248 µg/mL)

C[C@@H](NC(=O)c1cc([N+](=O)[O-])cc([N+](=O)[O-])c1)c1ccccc1
Activity (J774 [2]): Non-toxic
IC50 (J774 [3]): > 63.5 µM
selectivity ratio [4]: > 333
MIC [5]: 0.76 µM (≈ 0.24 µg/mL)
MBC [6]: 0.19 µM (≈ 0.0599 µg/mL)
MIC [1]: 0.19 µM (≈ 0.0599 µg/mL)

CCCCC(CC)CNC(=O)c1cc([N+](=O)[O-])cc([N+](=O)[O-])c1 (centres undefined)
MIC [1]: 0.19 µM (≈ 0.0614 µg/mL)

C[C@H](c1ccccc1)N(C)C(=O)c1cc([N+](=O)[O-])cc([N+](=O)[O-])c1
MIC [1]: 1.52 µM (≈ 0.501 µg/mL)

Cc1c([N+](=O)[O-])cc(C(=O)N[C@@H](C)c2ccc(Cl)cc2)cc1[N+](=O)[O-]
MIC [1]: > 5.51 µM

O=C(Nc1ccc(C(F)(F)F)cc1)c1cc([N+](=O)[O-])cc([N+](=O)[O-])c1
MIC [1]: 2.82 µM (≈ 1 µg/mL)

Cc1c([N+](=O)[O-])cc(C(=O)N[C@H](C)c2ccc(Cl)cc2)cc1[N+](=O)[O-]
MIC [1]: 1.38 µM (≈ 0.502 µg/mL)

COc1ccc([C@@H](C)NC(=O)c2cc([N+](=O)[O-])c(C)c([N+](=O)[O-])c2)cc1
MIC [1]: 0.7 µM (≈ 0.252 µg/mL)

COc1ccc(CCNC(=O)c2cc([N+](=O)[O-])cc([N+](=O)[O-])c2)cc1
MIC [1]: 1.45 µM (≈ 0.501 µg/mL)

Cc1c([N+](=O)[O-])cc(C(=O)N[C@H](C)c2ccccc2)cc1[N+](=O)[O-]
MIC [1]: 0.36 µM (≈ 0.119 µg/mL)

COc1ccc([C@@H](C)NC(=O)c2cc([N+](=O)[O-])cc([N+](=O)[O-])c2)cc1
MIC [1]: 2.9 µM (≈ 1 µg/mL)

CC[C@@H](NC(=O)c1cc([N+](=O)[O-])cc([N+](=O)[O-])c1)c1ccccc1
MIC [1]: 0.76 µM (≈ 0.25 µg/mL)

C[C@H](NC(=O)c1cc([N+](=O)[O-])cc([N+](=O)[O-])c1)c1ccc(Cl)cc1
MIC [1]: 1.43 µM (≈ 0.5 µg/mL)

Cc1c([N+](=O)[O-])cc(C(=O)N[C@@H](C)c2ccc(F)cc2)cc1[N+](=O)[O-]
AUC(0-t) [7]: 0.374 µM·h
clearance [8]: 111 mL/min/kg
half-life [9]: 54 min
bioavailability [10]: 35%
Cmax [11]: 711 nM
AUC(0-t) [12]: 0.351 µM·h
half-life [13]: 64.8 min
Tmax [14]: 15 min
Cmax [15]: 216 nM
Activity (J774 [2]): Non-toxic
IC50 (J774 [3]): > 57.6 µM
selectivity ratio [4]: > 1330
MIC [5]: < 0.64 µM
MBC [6]: < 0.04 µM
MIC [1]: 0.04 µM (≈ 0.0139 µg/mL)

Cc1ccc([C@@H](C)NC(=O)c2cc([N+](=O)[O-])c(C)c([N+](=O)[O-])c2)cc1
AUC(0-t) [7]: 0.352 µM·h
clearance [8]: 134 mL/min/kg
half-life [9]: 55.8 min
bioavailability [10]: 49%
Cmax [11]: 673 nM
AUC(0-t) [12]: 0.431 µM·h
half-life [13]: 97.8 min
Tmax [14]: 30 min
Cmax [15]: 177 nM
Activity (J774 [2]): Non-toxic
IC50 (J774 [3]): > 58.2 µM
selectivity ratio [4]: > 666
MIC [5]: 1.44 µM (≈ 0.494 µg/mL)
MBC [6]: 0.72 µM (≈ 0.247 µg/mL)
MIC [1]: 0.09 µM (≈ 0.0309 µg/mL)

Cc1ccc(CNC(=O)c2cc([N+](=O)[O-])cc([N+](=O)[O-])c2)cc1
MIC [1]: 3.17 µM (≈ 0.999 µg/mL)

CC[C@H](NC(=O)c1cc([N+](=O)[O-])cc([N+](=O)[O-])c1)c1ccccc1
MIC [1]: 3.04 µM (≈ 1 µg/mL)

C[C@@H](NC(=O)c1cc([N+](=O)[O-])cc([N+](=O)[O-])c1)c1ccc(F)cc1
MIC [1]: > 12 µM

CCC[C@@H](NC(=O)c1cc([N+](=O)[O-])cc([N+](=O)[O-])c1)c1ccccc1
MIC [1]: 2.91 µM (≈ 0.999 µg/mL)

COc1ccc([C@H](C)NC(=O)c2cc([N+](=O)[O-])c(C)c([N+](=O)[O-])c2)cc1
MIC [1]: 1.39 µM (≈ 0.499 µg/mL)

Cc1ccc([C@@H](C)NC(=O)c2cc([N+](=O)[O-])cc([N+](=O)[O-])c2)cc1
Activity (J774 [2]): Non-toxic
IC50 (J774 [3]): > 60.8 µM
selectivity ratio [4]: > 1330
MIC [5]: 0.8 µM (≈ 0.263 µg/mL)
MBC [6]: 0.2 µM (≈ 0.0659 µg/mL)
MIC [1]: 0.05 µM (≈ 0.0165 µg/mL)

CCCCCCNC(=O)c1cc([N+](=O)[O-])cc([N+](=O)[O-])c1
MIC [1]: 1.69 µM (≈ 0.499 µg/mL)

Cc1ccc([C@H](C)NC(=O)c2cc([N+](=O)[O-])c(C)c([N+](=O)[O-])c2)cc1
MIC [1]: 11.7 µM (≈ 4 µg/mL)

COc1ccc([C@H](C)NC(=O)c2cc([N+](=O)[O-])cc([N+](=O)[O-])c2)cc1
MIC [1]: 0.35 µM (≈ 0.121 µg/mL)

Cc1ccc([C@H](C)NC(=O)c2cc([N+](=O)[O-])cc([N+](=O)[O-])c2)cc1
MIC [1]: 0.76 µM (≈ 0.25 µg/mL)

N#Cc1ccccc1NC(=O)c1cc([N+](=O)[O-])cc([N+](=O)[O-])c1
MIC [1]: 6.4 µM (≈ 2 µg/mL)

O=C(NCCc1ccccc1)c1cc([N+](=O)[O-])cc([N+](=O)[O-])c1
Activity (J774 [2]): Non-toxic
IC50 (J774 [3]): > 63.5 µM
selectivity ratio [4]: > 80
MIC [5]: 3.16 µM (≈ 0.996 µg/mL)
MBC [6]: 0.79 µM (≈ 0.249 µg/mL)
MIC [1]: 0.79 µM (≈ 0.249 µg/mL)

O=C(Nc1ccc(OC(F)(F)F)cc1)c1cc([N+](=O)[O-])cc([N+](=O)[O-])c1
MIC [1]: 2.7 µM (≈ 1 µg/mL)

O=C(NCCCc1ccccc1)c1cc([N+](=O)[O-])cc([N+](=O)[O-])c1
MIC [1]: 1.52 µM (≈ 0.501 µg/mL)

Cc1c([N+](=O)[O-])cc(C(=O)N[C@H](C)c2ccc(F)cc2)cc1[N+](=O)[O-]
Activity (J774 [2]): Non-toxic
IC50 (J774 [3]): > 57.6 µM
selectivity ratio [4]: > 333
MIC [5]: 0.71 µM (≈ 0.247 µg/mL)
MBC [6]: 0.17 µM (≈ 0.059 µg/mL)
MIC [1]: 0.17 µM (≈ 0.059 µg/mL)

CC[C@@H](C)NC(=O)c1cc([N+](=O)[O-])cc([N+](=O)[O-])c1
MIC [1]: 1.87 µM (≈ 0.5 µg/mL)

Cc1c([N+](=O)[O-])cc(C(=O)NCc2ccccc2)cc1[N+](=O)[O-]
MIC [1]: 0.38 µM (≈ 0.12 µg/mL)

CCCCC[C@@H](C)NC(=O)c1cc([N+](=O)[O-])cc([N+](=O)[O-])c1
MIC [1]: 1.62 µM (≈ 0.501 µg/mL)

O=C(NCc1ccccc1)c1cc([N+](=O)[O-])cc([N+](=O)[O-])c1
MIC [1]: 0.8 µM (≈ 0.241 µg/mL)

O=C(Nc1ccc(F)cc1)c1cc([N+](=O)[O-])cc([N+](=O)[O-])c1
MIC [1]: > 1.63 µM

C[C@H](NC(=O)c1cc([N+](=O)[O-])cc([N+](=O)[O-])c1)c1ccc(F)cc1
MIC [1]: 3 µM (≈ 1 µg/mL)

Cc1ccc(CNC(=O)c2cc([N+](=O)[O-])c(C)c([N+](=O)[O-])c2)cc1
MIC [1]: 0.09 µM (≈ 0.0296 µg/mL)

CC[C@H](C)NC(=O)c1cc([N+](=O)[O-])cc([N+](=O)[O-])c1
MIC [1]: > 3.74 µM

O=C(Nc1ccccc1F)c1cc([N+](=O)[O-])cc([N+](=O)[O-])c1
MIC [1]: 26.1 µM (≈ 7.96 µg/mL)

C[C@H](NC(=O)c1cc([N+](=O)[O-])cc([N+](=O)[O-])c1)c1ccccc1
MIC [1]: > 3.17 µM

O=C(NC1CCCC1)c1cc([N+](=O)[O-])cc([N+](=O)[O-])c1
MIC [1]: 0.9 µM (≈ 0.251 µg/mL)

C[C@@H](NC(=O)c1cc([N+](=O)[O-])cc([N+](=O)[O-])c1)c1ccc(Cl)cc1
MIC [1]: 0.17 µM (≈ 0.0595 µg/mL)

O=C(Nc1cccc(F)c1)c1cc([N+](=O)[O-])cc([N+](=O)[O-])c1
MIC [1]: 3.28 µM (≈ 1 µg/mL)

CCCCC[C@H](C)NC(=O)c1cc([N+](=O)[O-])cc([N+](=O)[O-])c1
MIC [1]: 1.62 µM (≈ 0.501 µg/mL)

Cc1ccc(CCNC(=O)c2cc([N+](=O)[O-])cc([N+](=O)[O-])c2)cc1
MIC [1]: 1.52 µM (≈ 0.501 µg/mL)
